pIC50: −log10 of the molar value.
Biological target: T1, c-Raf (Homo sapiens, UniProt P04049)
T1 construct: made in house; host or cells: baculovirus, High-5 (Hi5) insect cells, co-infected with FLAG-vSrc virus
Experiment: c-Raf HTRF assay with 6H-MEK as substrate (dose response)
Assay type: biochemical
Details: kinase enzyme inhibition, 6H-MEK substrate, read-out: cRaf IC50
Method: Kinase Enzyme Inhibition Assay (IC50)
c-Raf HTRF Assay With 6H-MEK as Substrate (Dose Response)
The assay utilizes 6H-MEK as the substrate. Upon c-Raf phosphorylation, phosphorylated 6H-MEK is detected with rabbit anti-phospho-MEK1/2, Eu-labeled anti-rabbit, and APC-labeled anti-6H antibodies.
Reagents and Instruments:
• Enzyme: cloned human c-Raf with EE-tag; phosphorylated (co-expressed with v-src-FLAG in baculovirus Hi5 cells), 0.2 mg/mL (2.74 μM assuming a molecular weight of 73 kD) stored at −15° C. • Substrate: WT full-length 6H-MEK, 4.94 mg/mL (154.4 μM assuming a MW of 32 kD) stored at −15° C. • Antibodies: Rabbit (α-P-(Ser 217/221)-MEK-1/2 Ab (from Cell Signaling, Cat. #9121B, Lot 14); Eu-(α-rabbit IgG (from Wallac, Cat. #AD0083, Lot 318663, 710 ug/mL, 4.4 μM); (α-6H-SureLight-APC (from Martek, Cat. #AD0059H, Lot E012AB01, 3.03 μM). • Reader: Envision from PerkinElmer, HTRF reading mode with 412 mirror • Assay Plate: Matrix all-black polypropylene plates (Cat. #4344) • Others: Weidman 384 polypropylene plates (REMP) for compound plate. Assay Procedure: • (1) Prepare Kinase Assay Buffer (KAB): 50 mM HEPES (HyClone) pH7, 10 mM MgCl2, 1 mM DTT, 0.1 mM […], and 0.3 mg/ml BSA. • (2) Prepare 6H-MEK (150 nM) in KAB. Add 12 μL/well to the assay plate. • (3) Prepare ATP (66 μM) in KAB. • (4) Dilute compounds to 2.4 mM and any positive controls to 480 μM in DMSO. Perform 10-point 3× dilution in DMSO. Withdraw 2.5 μL/well of DMSO solution and add to 27.5 μl/well ATP solution in (3). • (5) Mix, then add 6 μl/well of solution in (4) to the assay plate for a DMSO concentration of 2.1% during MEK phosphorylation. • (6) Prepare c-Raf (12 nM) in KAB. • (7) Add 6 μl/well of KAB in columns 1-2 and 6 μL/well of c-Raf in columns 3-24. • (8) Incubate at 37° C. for 30 min. • (9) Prepare rabbit (α-P-(Ser 217/221 )-MEK-1/2 Ab (1:240 from stock) in AB1: 50 mM HEPES pH7, 0.2 mg/mL BSA, and 43 mM EDTA. • (10) To stop reaction, add 6 μL/well of solution from (9) to the assay plate and incubate at 37° C. for 30 min. • (11) Prepare Eu-(α-rabbit IgG (9 nM) and (α-6H-SureLight-APC (120 nM) in AB2: 50 mM HEPES pH7 and 0.2 mg/mL BSA. • (12) Add 6 μl/well of solution from (11) to the assay plate. • (13) For determining the spectrum cross talk factor, prepare 2 samples following steps (1) to (10). For the blank sample, add 6 μl/well of AB2. For the cross talk factor sample, add 6 μL/well of Eu-anti rabbit IgG (9 nM). • (14) Incubate at room temperature for 1.5 hours. • (15) Read HTRF signals at 615 nm and 665 nm on the Envision. Normalize HTRF signals after spectrum cross-talk correction. Expression and Purification of c-Raf
N terminal EE-tagged c-Raf was expressed in High-5 cells. A five liter culture was co-transfected with virus for EE-c-Raf and FLAG-vSrc at a ratio of 1:2 and harvested after 48 hours. The cell pellet was lysed in TBS containing 5 mM EDTA, 50 mM KF, 20 mM Na pyrophosphate, 20 mM β-glycerolphosphate, 0.5 mM Na VO3, 1% NP-40 (w/v) and Complete Protease Tablets. The lysate was centrifuged at 20,000×g for 1 hour. The supernatant was incubated with 8 mL of anti-EE tag-Protein G Sepharose for 2 hours at 4° C. The resin was then washed with 30 volumes of the above buffer. The c-Raf protein was eluted by incubation with the above buffer containing 100 mg/mL of EE peptide for 1 hour at 4° C. The protein was concentrated using an Amicon Stir Cell with an YM10 membrane. The concentrated protein was dialyzed against TBS containing 1 mM DTT and 30% Glycerol. Protein concentration was determined by the BioRad DC method.
E. coli cells containing the plasmid for the expression of 6H-MEK1 (62-393) were grown in Rich Media and induced with 1 mM IPTG for 24 hours at 22° C. The cell pellet was resuspended in 50 mM potassium phosphate buffer, pH 8.0, 300 mM NaCl, 5 mM MgCl2, 10 mM CHAPS, 2 mM TCEP, and Complete Protease Inhibitor Tablets. Cells were disrupted by sonication. The lysate was cleared by centrifugation at 13,000×g for 45 minutes. […]

T1 sequence (P04049 whole entry): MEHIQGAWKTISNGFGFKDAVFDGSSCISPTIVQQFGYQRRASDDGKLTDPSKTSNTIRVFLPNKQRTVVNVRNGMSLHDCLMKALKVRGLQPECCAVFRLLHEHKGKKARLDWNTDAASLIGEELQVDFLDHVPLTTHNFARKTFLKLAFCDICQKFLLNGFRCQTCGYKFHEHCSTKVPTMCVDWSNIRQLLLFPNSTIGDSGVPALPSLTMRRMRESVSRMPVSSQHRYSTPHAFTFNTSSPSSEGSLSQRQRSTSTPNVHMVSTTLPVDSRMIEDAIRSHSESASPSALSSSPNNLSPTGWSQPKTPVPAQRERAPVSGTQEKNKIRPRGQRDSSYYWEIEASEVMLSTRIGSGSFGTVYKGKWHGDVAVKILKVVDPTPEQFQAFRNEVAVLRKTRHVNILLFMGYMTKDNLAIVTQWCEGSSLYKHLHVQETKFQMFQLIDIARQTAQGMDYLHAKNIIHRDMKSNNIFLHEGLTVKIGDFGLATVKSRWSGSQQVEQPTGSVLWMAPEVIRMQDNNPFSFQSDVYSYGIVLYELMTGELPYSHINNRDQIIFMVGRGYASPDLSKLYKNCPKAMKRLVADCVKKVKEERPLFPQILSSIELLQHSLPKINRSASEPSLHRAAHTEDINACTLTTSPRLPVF

SMILES	pIC50
Cn1nc(COc2cccc(OCc3ccccc3)c2)c2c(N)ncnc21 [Example 7, 3-(3-Benzyloxy-phenoxymethyl)-1-methyl-1H-pyrazolo[3,4-d]pyrimidin-4-ylamine]	> 5.00
Cc1ccc(NC(=O)c2ccc(NCCO)c(Cl)c2)cc1OCc1nn(C)c2ncnc(N)c12 [Example 9, N-[3-(4-Amino-1-methyl-1H-pyrazolo[3,4-d]pyrimidin-3-ylmethoxy)-4-methyl-phenyl]-3-chloro-4-(2-hydroxy-ethylamino)-benzamide]	> 5.00
Cc1ccc(NC(=O)c2cccc(Cl)c2)cc1OCc1nn(C)c2ncnc(N)c12 [Example 11, N-[3-(4-Amino-1-methyl-1H-pyrazolo[3,4-d]pyrimidin-3-ylmethoxy)-4-methyl-phenyl]-3-chloro-benzamide]	> 5.00
Cc1noc(-c2ccc(C)c(OCc3nn(C)c4ncnc(N)c34)c2)n1 [Example 13, 4-Amino-1-1-methyl-3-[2-methyl-5-(3-methyl-[1,2,4]oxadiazol-5-yl)-phenoxymethyl]-1H-pyrazolo[3,4-d]pyrimidine]	> 5.00
Cc1ccc(OCc2ccccc2)cc1OCc1nn(C)c2ncnc(N)c12 [Example 15, 3-(5-Benzyloxy-2-methyl-phenoxymethyl)-1-methyl-1H-pyrazolo[3,4-d]pyrimidin-4-ylamine]	> 5.00
Cc1ccc(C(=O)Nc2ccc(Cl)cc2)cc1OCc1nn(C)c2ncnc(N)c12 [Example 17, 3-(4-Amino-1-methyl-1H-pyrazolo[3,4-d]pyrimidin-3-ylmethoxy)-N-(4-chloro-phenyl)-4-methyl-benzamide]	> 5.00
Cc1ccc(OCc2ccc(Cl)cc2)cc1OCc1nn(C)c2ncnc(N)c12 [Example 19, 3-[5-(4-Chloro-benzyloxy)-2-methyl-phenoxymethyl]-1-methyl-1H-pyrazolo[3,4-d]pyrimidin-4-ylamine]	> 5.00
Cc1nnc(-c2ccc(C)c(OCc3nn(C)c4ncnc(N)c34)c2)o1 [Example 21, 1-Methyl-3-[2-methyl-5-(5-methyl-[1,3,4]oxadiazol-2-yl)-phenoxymethyl]-1H-pyrazolo[3,4-d]pyrimidin-4-ylamine]	> 5.00

— patent publication US7968554B2, “Pyrazolo[3,4-d]pyrimidine derivatives” (Hoffman-La Roche Inc., priority 2007, dated 2011)
